Test results: patent US12414959B2, “Glucose infusion solution composition” (priority 2017, dated 2025)
≈ marks a conversion by molar mass, not a printed value.

Experiments:
[1] = Preparation of clear sugar mixture solutions: clearness of dissolution; assay type: physicochemical; details: added in an amount of two times the solubility until colorless, water for injection, room temperature
Description: Then, each sugar was added to 2 ml of water for injection, and stirred at room temperature until a clear solution was obtained. […] In addition, a sample was prepared by doubling the amount of sample F1, and the clearness of the solution was observed (F2).

[2] = cited from earlier work
[3] = Preliminary experiment on amino acids excluded from the test; assay type: physicochemical
[4] = Stabilizer test (sodium bisulfite, EDTA-2Na dihydrate): color, pH and osmolality over 10 days
Description: First, 200 μl of sample F6 was added to 1800 μl of water for injection, and then stirred at room temperature, thereby preparing six samples, each consisting of 2 ml of a 10-fold-diluted sugar solution (samples a, a-1, b, b-1, c and c-1).
Next, the pH of each of the six samples was measured, and then adjusted with NaOH so as to be close to in vivo plasma pH 7.4.
A 0.1% solution of sodium bisulfite was prepared by mixing 5 mg of sodium bisulfite as stabilizer with 5 ml of water for injection, and a 0.2% solution of EDTA-2Na dihydrate was prepared by mixing 10 mg of EDTA-2Na dihydrate with 5 ml of water for injection. Then, 110 μl of each of the prepared solutions was added to some of the six 10-fold-diluted sugar solutions.

SMILES	clearness of dissolution [1]	Solubility (Colorless): Solubility until colorless [2]	Solubility (Maximum): A maximum of solubility [2]	initial osmolality variation when added [3]	suitability as stabilizer for sample F6 [4]
C[C@H](O)[C@@H](O)[C@@H](O)[C@H](O)C=O [L-Fucose, L-fucose]	clearly dissolved	50 mg/mL (≈ 305 mM)	827 mg/mL		
CC(=O)N[C@H]1C(O)O[C@H](CO)[C@H](O)[C@@H]1O (stereo partly drawn) [N-Acetyl galactosamine, N-acetylgalactosamine]	clearly dissolved	50 mg/mL (≈ 226 mM)	100 mg/mL		
N[C@@H](CS)C(=O)O [cysteine]				excessively high	
O=S([O-])O.[Na+] [sodium bisulfite]					not suitable
O=C[C@H](O)[C@@H](O)[C@H](O)CO [Xylose, xylose]	not clearly dissolved	50 mg/mL (≈ 333 mM)	100 mg/mL		
CC(=O)N[C@H]1C(O)O[C@H](CO)[C@@H](O)[C@@H]1O (stereo partly drawn) [N-Acetyl glucosamine, N-acetylglucosamine]	clearly dissolved	50 mg/mL (≈ 226 mM)	50 mg/mL		
N[C@@H](Cc1c[nH]c2ccccc12)C(=O)O [tryptophan]				excessively high	
O=C[C@H](O)[C@@H](O)[C@H](O)[C@H](O)CO [Glucose, glucose]	clearly dissolved	133 mg/mL (≈ 738 mM)			
O.O.O=C([O-])CN(CCN(CC(=O)O)CC(=O)O)CC(=O)[O-].[Na+].[Na+] [EDTA-2NA dihydrate, disodium edetate dihydrate]					not suitable
CC(=O)N[C@H]1[C@H]([C@H](O)[C@H](O)CO)OC(O)(C(=O)O)C[C@@H]1O (stereo partly drawn) [N-Acetyl neuraminic acid, N-acetylneuraminic acid]	not clearly dissolved	50 mg/mL (≈ 162 mM)	50 mg/mL		
O=C[C@H](O)[C@@H](O)[C@@H](O)[C@H](O)CO [Galactose, galactose]	clearly dissolved	100 mg/mL (≈ 555 mM)	683 mg/mL		
